2 molecules from publication PMC11274128, “Modification and Synergistic Studies of a Novel Frog Antimicrobial Peptide against Pseudomonas aeruginosa Biofilms” (Antibiotics, 2024) can be followed below.

Bridge positions count the residues as written; N and C are the ends. Peptide text beside a SMILES is read from it.

The subject of assay [1] is G+ Bacteria. Put plainly: Geometric mean of MICs and TI value. It is filed as cell-based. The conditions noted are these: geometric mean of MICs against tested Gram-positive bacteria. As to the method:
The therapeutic potential of antimicrobial agents was valued based on their selectivity toward bacteria in reference to erythrocytes. The TI value was calculated from the results of antibacterial and haemolysis experiments of peptides using the following formula:TI value = HC10 / GMMICs.
GM was the geometric mean of MICs against all tested bacteria.

In assay [2] the test system is P. aeruginosa 01 biofilm. It is filed as cell-based, Pseudomonas aeruginosa. The conditions noted are these: for MBIC: lowest concentration inhibiting at least 90% of biofilm formation; for MBEC: minimum concentration eradicating at least 99% of the biofilm. From the text: (§1) The minimum bactericidal concentration (MBC) is defined as the lowest antibiotic concentration that kills 99.9% of the inoculum. The minimum biofilm inhibitory concentration (MBIC) is the lowest concentration that inhibits at least 90% of the formation of biofilm. The minimum biofilm eradication concentration (MBEC) is the minimum concentration that can eradicate at least 99% of the biofilm. In addition to the eight microorganisms described previously, this experiment was also applied to P. aeruginosa (ATCC 27853, ATCC BAA-2108, P. aeruginosa 01, P. aeruginosa 14).

Assay [3] relates to P. aeruginosa 14 biofilm. It is filed as cell-based, Pseudomonas aeruginosa. The conditions noted are these: for MBIC: lowest concentration inhibiting at least 90% of biofilm formation; for MBEC: minimum concentration eradicating at least 99% of the biofilm.
Text: as §1

In assay [4] the test system is P. aeruginosa ATCC 27853 biofilm. It is filed as cell-based, Pseudomonas aeruginosa. The following applies: for MBIC: lowest concentration inhibiting at least 90% of biofilm formation; for MBEC: minimum concentration eradicating at least 99% of the biofilm.
Text: as §1

Assay [5] concerns P. aeruginosa ATCC BAA-2108 biofilm. It is filed as cell-based, Pseudomonas aeruginosa. The following applies: for MBIC: lowest concentration inhibiting at least 90% of biofilm formation; for MBEC: minimum concentration eradicating at least 99% of the biofilm.
Text: as §1

Assay [6] deals with P. aeruginosa ATCC CRM 9027 biofilm. It is filed as cell-based, Pseudomonas aeruginosa. The conditions noted are these: for MBIC: lowest concentration inhibiting at least 90% of biofilm formation; for MBEC: minimum concentration eradicating at least 99% of the biofilm.
Text: as §1

The test system of assay [7] is A. baumannii BAA 747 biofilm. In kind it is cell-based, Acinetobacter baumannii. The following applies: for MBIC: lowest concentration inhibiting at least 90% of biofilm formation; for MBEC: minimum concentration eradicating at least 99% of the biofilm.
Text: as §1

`CC[C@H](C)[C@H](NC(=O)[C@H](CCCCN)NC(=O)[C@H](CCCCN)NC(=O)CNC(=O)[C@H](C)NC(=O)CNC(=O)[C@H](CC(C)C)NC(=O)[C@@H](NC(=O)CNC(=O)[C@H](CO)NC(=O)[C@H](CC(C)C)NC(=O)[C@H](CC(C)C)NC(=O)CN)C(C)C)C(=O)N[C@H](C(=O)N[C@H]1CSSC[C@@H](C(=O)O)NC(=O)[C@H](CCCNC(=N)N)NC(=O)CNC(=O)[C@H](CO)NC(=O)[C@H](CC(C)C)NC(=O)CNC1=O)C(C)C` [Nigrosin-6VL] (H-GLLSGVLGAGKKIVCGLSGRC-OH; disulfide 15-21): the “GM (geometric mean of MICs), G+ Bacteria” value in assay [1] is 101.59 µM. For the same molecule, the MBIC in assay [2], in assay [3], in assay [4], in assay [5], in assay [6] and in assay [7] was >128/>128 µM each time. Further, the MBEC in assay [2], in assay [3], in assay [4], in assay [5], in assay [6] and in assay [7] was >128/>128 µM in each case.
For the molecule `CC[C@H](C)[C@H](NC(=O)[C@H](CCCCN)NC(=O)[C@H](CCCCN)NC(=O)CNC(=O)[C@H](C)NC(=O)[C@H](CCCNC(=N)N)NC(=O)[C@H](CC(C)C)NC(=O)[C@@H](NC(=O)[C@H](C)NC(=O)[C@H](CCCNC(=N)N)NC(=O)[C@H](CC(C)C)NC(=O)[C@H](CC(C)C)NC(=O)CN)C(C)C)C(=O)N[C@H](C(=O)N[C@H]1CSSC[C@@H](C(=O)O)NC(=O)[C@H](CCCNC(=N)N)NC(=O)CNC(=O)[C@H](CO)NC(=O)[C@H](CC(C)C)NC(=O)CNC1=O)C(C)C` [Peptide 2170-2R] (H-GLLRAVLRAGKKIVCGLSGRC-OH; disulfide 15-21), the MBIC in assay [2] is given as 32 µM; in assay [3] it was >128/>128 µM; in assay [4] it was 8 µM; in assay [5], >128/>128 µM; in assay [6], >128/>128 µM; in assay [7] it was 8 µM. The MBEC in assay [2] is 64 µM; in assay [3], >128/>128 µM; in assay [4], 16 µM; in assay [5] it was >128/>128 µM; in assay [6] it was >128/>128 µM; in assay [7] it was 16 µM.
